In patent publication US20220233684A1, “COMBINATION OF HEPATITIS B VIRUS (HBV) VACCINES AND PD-L1 INHIBITORS” (Janssen Sciences Ireland Unlimited Company, priority 2019, published 2022):

The compounds below were run against PD-1/PD-L1 (Homo sapiens, UniProt Q9NZQ7) (assay: PD-1/PD-L1 biochemical protein-protein interaction assay (ALPHA)). Settings: 5 nM His tagged PD-L1, 5 nM biotinylated PD-1, 2 hours at 25° C.; read-out: ALPHA-LISA IC50.
Assay type: binding
Description: Compounds were tested in protein-protein interaction assay to determine if they can specifically block the interaction between the extracellular domains of PD-1/PD-L1. Binding of the protein pairs is measured using a bead based amplified luminescent proximity homogeneous assay (ALPHA) platform. Binding of each protein pair results in proximity of the donor and acceptor beads which leads to an increase in ALPHA signal. Assays are performed in 50 mM Tris (pH 7.4), 0.0015% Triton X-100, 0.1% BSA. Final protein concentration in the assays were 5 nM (His tagged PD-L1), 5 nM (biotinylated PD-1), 10 μg/ml ALPHA assay acceptor beads, 10 μg/ml ALPHA assay donor beads. After an assay reaction time of 2 hours at 25° C., binding was measured. The specificity of the binding was determined by testing the compounds in an assay with an irrelevant protein that is both His tagged and biotinylated. The final protein concentration used in the assay was 5 nM, 10 μg/ml ALPHA assay acceptor beads, 10 μg/ml ALPHA assay donor beads. After an assay reaction time of 2 hours at 25° C., binding was measured. IC50 values were calculated from the fit of the dose-response curves to a four-parameter equation.
The specificity of the binding was determined by testing the compounds in an assay with an irrelevant protein that is both His tagged and biotinylated (ErbB3/her3). The final protein concentration used in the assay was 5 nM, 10 μg/mL ALPHA assay acceptor beads, 10 μg/mL ALPHA assay donor beads. After an assay reaction time of 2 hours at 25° C., binding was measured. IC50 values were calculated from the fit of the dose-response curves to a four-parameter equation.

Sequence of PD-1/PD-L1 (Q9NZQ7 19-238 limits assumed): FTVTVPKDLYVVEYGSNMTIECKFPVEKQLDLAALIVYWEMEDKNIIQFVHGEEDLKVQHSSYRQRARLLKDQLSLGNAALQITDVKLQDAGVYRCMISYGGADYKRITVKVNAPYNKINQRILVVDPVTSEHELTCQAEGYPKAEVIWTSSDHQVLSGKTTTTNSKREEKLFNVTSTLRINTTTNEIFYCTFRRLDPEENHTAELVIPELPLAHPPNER

**Q.** With `Cc1cc(CN[C@](C)(CO)C(=O)O)c(OCc2cccc(C#N)c2)cc1OCc1cccn(-c2ccc3c(c2)OCCO3)c1=O` [Compound 9, (R)-2-((2-((3-cyanobenzyl)oxy)-4-((1-(2,3-dihydrobenzo[b][1,4]dioxin-6-yl)-2-oxo-1,2-dihydropyridin-3-yl)methoxy)-5-methylbenzyl)amino)-3-hydroxy-2-methylpropanoic acid] as the compound, how does the IC50 read?
**A.** 1200 nM

**Q.** `O=C(O)[C@@H](CO)NCc1cc(Cl)c(OCc2cccn(-c3ccc4c(c3)OCCO4)c2=O)cc1OCc1cncc(-n2ccnn2)c1` [Compound 209] was tested. Which IC50 did it give?
**A.** 550 nM

**Q.** How did the IC50 turn out when `Cc1cc(CN(C)[C@@H](CO)C(=O)O)c(OCc2cccc(C#N)c2)cc1OCc1cccn(-c2ccc3c(c2)OCCO3)c1=O` [Compound 12] was run?
**A.** 1600 nM

**Q.** For `Cc1cc(CN2C[C@H](O)C[C@@H]2C(=O)O)c(OCc2cccc(C#N)c2)cc1OCc1cccn(-c2ccc3c(c2)OCCO3)c1=O` [Compound 8, (2R,4R)-1-(2-((3-cyanobenzyl)oxy)-4-((1-(2,3-dihydrobenzo[b][1,4]dioxin-6-yl)-2-oxo-1,2-dihydropyridin-3-yl)methoxy)-5-methylbenzyl)-4-hydroxypyrrolidine-2-carboxylic acid], which IC50 is on record?
**A.** 3400 nM

**Q.** `N#Cc1cncc(COc2cc(OCc3cccn(-c4ccc5c(c4)OCCO5)c3=O)c(Cl)cc2CN[C@H](CO)C(=O)O)c1` [Compound 207, (5-chloro-2-((5-cyanopyridin-3-yl)methoxy)-4-((1-(2,3-dihydrobenzo[b][1,4]dioxin-6-yl)-2-oxo-1,2-dihydropyridin-3-yl)methoxy)benzyl)-D-serine] was tested. Which IC50 did it give?
**A.** 320 nM

**Q.** Which IC50 does the source give for `Cc1cc(CN[C@@H](CO)C(=O)O)c(OCc2cccc(C#N)c2)cc1OCc1cccn(-c2ccc3c(c2)OCCO3)c1=O` [Compound 10, (2-((3-cyanobenzyl)oxy)-4-((1-(2,3-dihydrobenzo[b][1,4]dioxin-6-yl)-2-oxo-1,2-dihydropyridin-3-yl)methoxy)-5-methylbenzyl)-L-serine] here?
**A.** 1200 nM

**Q.** With `N#Cc1cccc(COc2cc(OCc3cccn(-c4ccc5c(c4)OCCO5)c3=O)c(Cl)cc2CNC[C@@H]2CCC(=O)N2)c1` [Compound 205, (S)-3-((4-chloro-5-((1-(2,3-dihydrobenzo[b][1,4]dioxin-6-yl)-2-oxo-1,2-dihydropyridin-3-yl)methoxy)-2-((((5-oxopyrrolidin-2-yl)methyl)amino)methyl)phenoxy)methyl)benzonitrile] as the compound, how does the IC50 read?
**A.** 360 nM

**Q.** `Cc1cc(CN[C@H](CO)C(=O)O)c(OCc2cccc(Cl)c2)cc1OCc1cccn(-c2ccc3c(c2)OCCO3)c1=O` [Compound 101, (2-((3-chlorobenzyl)oxy)-4-((1-(2,3-dihydrobenzo[b][1,4]dioxin-6-yl)-2-oxo-1,2-dihydropyridin-3-yl)methoxy)-5-methylbenzyl)-D-serine] was tested. Which IC50 did it give?
**A.** 3000 nM

**Q.** `Cc1cc(CN[C@H](CO)C(=O)O)c(OCc2cccc(C#N)c2)cc1OCc1cccn(-c2ccc3c(c2)OCCO3)c1=O` [Compound 7, (2-((3-cyanobenzyl)oxy)-4-((1-(2,3-dihydrobenzo[b][1,4]dioxin-6-yl)-2-oxo-1,2-dihydropyridin-3-yl)methoxy)-5-methylbenzyl)-D-serine] was tested. Which IC50 did it give?
**A.** 1100 nM

**Q.** How did the IC50 turn out when `CC(C)c1cc(CN[C@H](CO)C(=O)O)c(OCc2cccc(C#N)c2)cc1OCc1cccn(-c2ccc3c(c2)OCCO3)c1=O` [Compound 204] was run?
**A.** 3600 nM

**Q.** How did the IC50 turn out when `CCc1cc(CN[C@H](CO)C(=O)O)c(OCc2cccc(C#N)c2)cc1OCc1cccn(-c2ccc3c(c2)OCCO3)c1=O` [Compound 203] was run?
**A.** 2700 nM

**Q.** How did the IC50 turn out when `Cc1cc(CN[C@@H](C)C(=O)O)c(OCc2cccc(C#N)c2)cc1OCc1cccn(-c2ccc3c(c2)OCCO3)c1=O` [Compound 11] was run?
**A.** 3900 nM

**Q.** For `Cc1cc(CN[C@H](CO)C(=O)O)c(OCc2cccnc2)cc1OCc1cccn(-c2ccc3c(c2)OCCO3)c1=O` [Compound 103, (4-((1-(2,3-dihydrobenzo[b][1,4]dioxin-6-yl)-2-oxo-1,2-dihydropyridin-3-yl)methoxy)-5-methyl-2-(pyridin-3-ylmethoxy)benzyl)-D-serine], which IC50 is on record?
**A.** 1000 nM

**Q.** Which IC50 does the source give for `N#Cc1cccc(COc2cc(OCc3cccn(-c4ccc5c(c4)OCCO5)c3=O)c(Cl)cc2CN[C@H](CO)C(=O)O)c1` [Compound 202, (5-chloro-2-((3-cyanobenzyl)oxy)-4-((1-(2,3-dihydrobenzo[b][1,4]dioxin-6-yl)-2-oxo-1,2-dihydropyridin-3-yl)methoxy)benzyl)-D-serine] here?
**A.** 300 nM
